These results are taken from patent publication US4237116A, “Combination of thiopeptin and rumensin to improve ruminant feed efficiency” (Merck & Co., Inc., priority 1979, dated 1980).

The test system of this assay is ruminants (cattle). The experiment in a line: Propionate content of rumen fluid in cattle given medicated feed (high roughage diet, then shifted to high grain diet). In kind it is in vivo. As to the method:
The synergistic effect of the combination of thiopeptin and rumensin has been observed by administering the two compounds to ruminants on a controlled diet and taking periodic samples of rumen fluid. The amount of each of the volatile fatty acids present in the rumen fluid is measured and compared with that of animals taking no medication and also with animals given only one of the two compounds. This effect has been observed in ruminants on diets of both the high roughage and high grain types. […] Animals given the same diet but with 8.25 ppm of thiopeptin in the diet for 7 days had 25.87 mole % of propionate. Animals given 16.5 ppm of rumensin for 7 days had 25.81 mole % of propionate. […] In the same test, the animal's feed was then shifted to a high grain diet and after 2 days rumen samples again taken. The control animals had 21.73 mole % of propionate. The thiopeptin treated animals (at the same dose as the first test) had 27.31 mole % propionate. The rumensin treated animals (again at the same dose as previously) had 25.95 mole % of propionate.

Setting [1] is: high roughage diet, drug in the diet for 7 days, thiopeptin 8.25 ppm, rumensin 16.5 ppm, combination 8.25 ppm + 16.5 ppm, control animals 24.16 mole %.
Setting [2] is: same test after shift to high grain diet, rumen samples after 2 days, same doses (thiopeptin 8.25 ppm, rumensin 16.5 ppm, combination of both), control animals 21.73 mole %.

With `CC[C@@]1([C@H]2O[C@H]([C@H]3O[C@@](O)(CO)[C@H](C)C[C@@H]3C)C[C@H]2C)CC[C@H]([C@@]2(C)CC[C@]3(C[C@H](O)[C@@H](C)[C@@H]([C@H](C)[C@H](OC)[C@@H](C)C(=O)[O-])O3)O2)O1.[Na+]` [rumensin, Rumensin], the “propionate in the rumen fluid” value was 25.81 mole % under setting [1] and 25.95 mole % under setting [2].

For Thiopeptin, the “propionate in the rumen fluid” value under setting [1] came out at 25.87 mole % and the “propionate in the rumen fluid” value under setting [2] came out at 27.31 mole %.
